The values below come from publication PMC5315687 (ACS chemical biology, 2017).

The assay deals with T1, His6-MibD (Microbispora sp. ATCC PTA-5024, UniProt W2ESX4).
T1 sequence (W2ESX4 1-215): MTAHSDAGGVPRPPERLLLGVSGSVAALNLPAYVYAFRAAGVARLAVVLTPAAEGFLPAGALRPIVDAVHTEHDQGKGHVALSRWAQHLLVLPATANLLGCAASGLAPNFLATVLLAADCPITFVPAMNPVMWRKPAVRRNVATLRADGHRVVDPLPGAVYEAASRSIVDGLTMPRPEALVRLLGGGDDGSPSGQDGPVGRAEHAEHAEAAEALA
In words: flavin isolated from heat-denatured protein, MALDI-TOF MS. The format is binding. The note with it: non-covalent, co-purified.

Molecules are shown by their SMILES.

`Cc1cc2nc3c(=O)[nH]c(=O)nc-3n(C[C@H](O)[C@H](O)[C@H](O)COP(=O)(O)OP(=O)(O)OC[C@H]3O[C@@H](n4cnc5c(N)ncnc54)[C@H](O)[C@@H]3O)c2cc1C` [FAD]: the “flavin isolated from heat-denatured protein, MALDI-TOF MS” value is “The isolation of FAD from His6-MibD suggests the cofactor is not covalently linked”.
